Results on one compound are retold here after US10472677B2, “Translational dysfunction based therapeutics” (Translational Therapeutics, Inc., priority 2005, dated 2019).

As a reminder, the EC50 is the midpoint of the concentration-response curve.

One assay concerns the target T1, eIF4E W73A (Mus musculus, UniProt P63073, W73A).
T1 construct: made in house
Put plainly: tryptophan fluorescence quenching titration, dorsal surface mutant. It is filed as binding. The following applies: relative to wild-type eIF4E. On the procedure: For fluorescence titrations, mouse eIF4E, which differs from human eIF4E by four nonconserved amino acids, was produced as described. For NMR spectroscopy, mouse eIF4E was expressed as a fusion with the B1 domain of protein G (G4E, kind gift of Gerhard Wagner, Harvard University, Cambridge, Mass.), in BL21 (DE-3) cells by induction with 0.8 mM isopropyl-β-D-thiogalactopyranoside at 18° C. for 20 h in M9 minimal media containing 1 g/l ^15NH4Cl as the sole nitrogen source (Cambridge Isotopes). […] Eluate was dialyzed extensively against 0.1 M NaCl/50 mM Na2PO4 (pH 6.5)/5 mM DTT at 4° C. to produce apo-G4E, as verified by using NMR spectroscopy and fluorescence titrations. […]
Fluorescence measurements were performed by using a home-built fluorimeter, as described. All titrations were performed in 0.3 M NaCl/10 mM Na2PO4 (pH 7.5)/1 μM zinc in 0.3×0.3 cm^2 fluorescence cuvette (Hellma), by using eIF4E concentration of 2 μM. […] Corrected relative fluorescence intensities were normalized, and fluorescence quenching curves were fit to a heuristic single-site-binding expression: I/I0=Kd^n/(x^n+Kd^n) where x is ligand concentration, Kd is the apparent dissociation constant, and n is the Hill coefficient.

In assay [1] the test system is polysomal loading of eIF4E-sensitive mRNAs. Put plainly: polysomal loading of mRNAs, ribosome purification and quantitative RT-PCR. It is filed as cell-based, mouse. On the procedure: Cell pellets (500 mg) were homogenized in 1 ml of ice cold lysis buffer (20 mM Hepes/10 mM magnesium acetate/100 mM potassium acetate, pH 7.5) supplemented with protease inhibitors (EDTA-free Complete, Roche) and 400 units/ml of SUPERasine (Ambion), and incubated for 30 min on ice with occasional vortexing. Lysates were sedimented at 3,000×g for 10 min at 4° C. to pellet nuclei and cell debris. Supernatants were sedimented at 12,000×g for 20 min at 4° C. to pellet mitochondria. Cleared supernatants were then sedimented at 50,000 rpm (SW 50.1 rotor, Beckman) for 50 min at 4° C. to pellet ribosomes. Ribosomal pellets were resuspended in 200 μl of ice-cold lysis buffer and layered on top of 10-40% sucrose gradient buffered with the lysis buffer, and centrifuged at 50,000 rpm for 80 min at 4° C. RNA content of fractions was ascertained by using the ratio of absorbance at 260:280 nm. […] RNA from each fraction was quantified by spectrophotometry and 40 ng was converted into cDNA by using the Sensiscript reverse transcription kit (Qiagen, Valencia, Calif.). Quantitative real-time PCR was carried out in triplicate by using the QuantiTect SYBR green real-time PCR Kit (Qiagen) in an Opticon thermal cycler (MJ Research, Waltham, Mass.). […] Obtained real-time PCR profiles were analyzed by using Opticon software (MJ Research).

For assay [2], the target named is T2, eIF4E:mRNA binding in cells (Mus musculus, UniProt P63073).
T2 construct: endogenous in cells; host or cells: NIH 3T3 cells
T2 sequence (P63073 2-217 limits assumed): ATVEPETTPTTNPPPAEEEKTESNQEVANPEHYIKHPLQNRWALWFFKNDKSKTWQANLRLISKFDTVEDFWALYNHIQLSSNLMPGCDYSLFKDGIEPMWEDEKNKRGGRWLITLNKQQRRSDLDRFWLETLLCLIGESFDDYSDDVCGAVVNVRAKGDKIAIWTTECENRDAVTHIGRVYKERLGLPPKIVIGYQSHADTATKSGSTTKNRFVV
The assay is described as follows: immunopurification of eIF4E from treated cells and semiquantitative RT-PCR. It is filed as cell-based. As to the method:
Sepharose-conjugated protein G (Amersham Pharmacia) for 30 min at 4° C., incubated with 10 μg of mouse anti-eIF4E antibody (Transduction Laboratories) for 90 min at 4° C., and subsequently incubated overnight at 4° C. upon addition of 0.5 mg yeast tRNA (Sigma-Aldrich), 200 units/ml RNasin (Ambion), and Sepharose-conjugated protein G. Bound Sepharose was washed once with NET-2 buffer supplemented with 1 mg/ml heparin (Sigma-Aldrich) at 4° C., six times with NET-2 buffer alone, and suspended in 100 mM Tris.HCl (pH 6.8)/4% (wt/vol) SDS/20% (vol/vol) glycerol/12% (vol/vol) 2-mercaptoethanol, and incubated for 5 min at 98° C. RNA was extracted once with 25:24:1 […], twice with chloroform:isopropanol, precipitated overnight at −20° C. with 2.5 volumes of absolute ethanol, 0.1 volume of 5 M sodium acetate (pH 5.2), and 20 μg glycogen (Sigma-Aldrich), washed with 75% (vol/vol) ethanol, and resuspended in water. […]. […]

T1 sequence (P63073 whole entry W73A): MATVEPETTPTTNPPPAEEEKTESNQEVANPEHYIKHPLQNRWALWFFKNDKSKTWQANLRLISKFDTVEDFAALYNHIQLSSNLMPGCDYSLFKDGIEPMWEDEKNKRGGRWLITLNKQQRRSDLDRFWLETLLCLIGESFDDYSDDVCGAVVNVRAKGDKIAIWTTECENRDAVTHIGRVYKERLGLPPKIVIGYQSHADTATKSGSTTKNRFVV

Turning to `NC(=O)c1ncn([C@@H]2O[C@H](CO)[C@@H](O)[C@H]2O)n1` [Ribavirin, 1-β-D-ribofuranosyl-1,2,4-triazole-3-carboxamide], the “effect of W73A mutation on Ribavirin affinity” value at eIF4E W73A is “no significant effect”. Moreover, the “decrease of polysomal loading of VEGF and ODC mRNAs” value in assay [1] is > 1,000 fold. Moreover, the “polysomal loading of cyclin D1 mRNA” value in assay [1] (1 μM) is listed as “no significant effect”. Besides, in assay [2] (1 uM), the “cytoplasmic eIF4E:VEGF mRNA complexes” value is on record as “partly abrogated”. Further, in assay [2] (100 uM), the “cytoplasmic eIF4E:actin mRNA complexes” value is on record as “not disrupted”. Moreover, the EC50 in assay [2] (nuclear eIF4E, read-out: apparent EC50 inhibition of eIF4E binding to cyclin D1 mRNA in cells) is approximately 1 µM.
